Laboratory results reported in PMC8688955 (Frontiers in Pharmacology, 2021).
Several values for one entry are separate records, joined by “and”; a condition that tells them apart may be missing. Equal entries are not always repeated. Where two headings read alike, the source gives them in different places.

Experiments:
[1] = target: T1, CI-AMPARs (Rattus norvegicus, UniProt P19491, Q607R); assay: Whole-cell patch-clamp of kainate-induced currents in isolated hippocampal CA1 pyramidal neurons; format: cell-based, Wistar rat; settings: for CI-AMPARs % inhibition at 100 µM: 100 µM compound; for CI-AMPARs % inhibition at 100 µM / inhibition at 100 µM: currents induced by 100 µM kainate, mean ± SD, N = 5; for inhibition at 100 µM: read-out: CI-AMPARs % inhibition at 100 µM, 100 µM compound; for IC50: kainate-induced currents; for Activity drop in the presence of cyclothiazide: 50 µM kainate; for decrease in the % of inhibition with the increase in agonist concentration: 50 vs 500 µM kainate; for Difference in the % of inhibition in coapplication and preapplication protocols: coapplication with kainate vs preapplication without kainate
T1 construct: activity against native calcium-permeable AMPA receptors (CP-AMPARs) and calcium-impermeable AMPA receptors (CI-AMPARs); endogenous in cells; host or cells: acutely isolated pyramidal neurons from the CA1 area of Wistar rat hippocampal slices
T1 sequence (P19491 22-883 Q607R): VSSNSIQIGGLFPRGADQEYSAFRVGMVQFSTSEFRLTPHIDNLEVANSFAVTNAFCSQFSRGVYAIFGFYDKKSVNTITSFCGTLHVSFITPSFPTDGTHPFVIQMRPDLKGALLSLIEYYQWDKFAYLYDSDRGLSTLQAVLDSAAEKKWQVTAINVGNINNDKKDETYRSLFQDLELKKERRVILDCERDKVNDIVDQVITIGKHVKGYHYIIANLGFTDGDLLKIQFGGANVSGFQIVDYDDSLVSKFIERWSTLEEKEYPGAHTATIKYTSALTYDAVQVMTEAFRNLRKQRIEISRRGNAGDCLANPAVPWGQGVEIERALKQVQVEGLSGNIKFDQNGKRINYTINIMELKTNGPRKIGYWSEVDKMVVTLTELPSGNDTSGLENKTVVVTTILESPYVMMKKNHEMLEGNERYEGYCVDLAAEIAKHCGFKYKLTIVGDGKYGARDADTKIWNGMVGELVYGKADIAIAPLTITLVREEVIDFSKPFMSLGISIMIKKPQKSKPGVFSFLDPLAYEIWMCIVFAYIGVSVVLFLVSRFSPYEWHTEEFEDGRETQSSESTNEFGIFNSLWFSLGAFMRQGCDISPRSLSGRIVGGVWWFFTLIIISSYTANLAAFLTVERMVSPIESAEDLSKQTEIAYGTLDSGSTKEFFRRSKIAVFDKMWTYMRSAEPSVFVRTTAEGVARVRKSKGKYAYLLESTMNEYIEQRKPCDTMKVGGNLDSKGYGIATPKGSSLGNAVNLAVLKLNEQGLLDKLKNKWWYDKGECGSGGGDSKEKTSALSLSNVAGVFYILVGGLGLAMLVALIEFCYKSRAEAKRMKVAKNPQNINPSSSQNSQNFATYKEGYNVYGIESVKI
Description: All experimental procedures were approved by the Animal Care and Use Committee of the I.M. Sechenov Institute of Evolutionary Physiology and Biochemistry of the Russian Academy of Sciences. Wistar rats (13–19 days old) were anesthetized with sevoflurane and then decapitated. Maximum effort was made to minimize the number of animals used. Brains were removed quickly and cooled to 2–4°C in an ice bath. […] The antagonism of CI-AMPARs was studied on pyramidal neurons from the CA1 area of the hippocampus.
Series resistance of about 20 MΩ was compensated by 70–80% and monitored during experiments. Currents were recorded using an EPC-8 amplifier (HEKA Electronics, Lambrecht, Germany), filtered at 5 kHz, sampled, and stored on a personal computer. Drugs were applied using the RSC-200 perfusion system (BioLogic Science Instruments, Claix, France) under computer control. The solution exchange time in the whole-cell mode was 50–60 ms. […] The pipette solution contained (in mM) CsF 100, CsCl 40, NaCl 5, CaCl2 0.5, EGTA 5, and HEPES 10 (pH was adjusted to 7.2 with CsOH). Experiments were performed at room temperature (22–24°C). […] Lamotrigine, topiramate, levetiracetam, felbamate, carbamazepine, tiagabin, vigabatrin, zonisamide, and gabapentin were purchased from Tocris Bioscience (Bristol, United Kingdom). Perampanel was from MedChemExpress (Stockholm, Sweden). Kinetics of transient processes of more than 20-ms duration was approximated by exponential functions. Experiments were performed at −80 mV holding voltage. All experimental data are presented as mean ± SD estimated from at least four experiments. Significance of the effects was tested with paired t test. Differences were considered significant at p < 0.05. 3D structures of compounds were calculated by the ZMM software (zmmsoft.ca).

[2] = system: CP-AMPARs; assay: Whole-cell patch-clamp of kainate-induced currents in isolated striatal giant interneurons; format: cell-based, Wistar rat; settings: for CP-AMPARs % inhibition at 100 µM: 100 µM compound, currents induced by 100 µM kainate, mean ± SD, N = 5; for % block: IEM-1925, […], representative recording, Figure 3E; for % inhibition: […] IEM-1925; for IC50: read-out: IC50 CP-AMPARs, kainate-induced currents
Description: All experimental procedures were approved by the Animal Care and Use Committee of the I.M. Sechenov Institute of Evolutionary Physiology and Biochemistry of the Russian Academy of Sciences. Wistar rats (13–19 days old) were anesthetized with sevoflurane and then decapitated. Maximum effort was made to minimize the number of animals used. Brains were removed quickly and cooled to 2–4°C in an ice bath. […] Single neurons were freed from slices by vibrodissociation ([Vorobjev, 1991]). The antagonism of CP-AMPARs was studied on striatal giant interneurons ([Bernard et al., 1997]; [Gotz et al., 1997]), which were identified by their shape and size. […] The antagonism of CI-AMPARs was studied on pyramidal neurons from the CA1 area of the hippocampus.
Series resistance of about 20 MΩ was compensated by 70–80% and monitored during experiments. Currents were recorded using an EPC-8 amplifier (HEKA Electronics, Lambrecht, Germany), filtered at 5 kHz, sampled, and stored on a personal computer. Drugs were applied using the RSC-200 perfusion system (BioLogic Science Instruments, Claix, France) under computer control. The solution exchange time in the whole-cell mode was 50–60 ms. The extracellular solution contained (in mM) NaCl 143, KCl 5, MgCl2 2.0, CaCl2 2.5, D-glucose 18, and HEPES 10 (pH was adjusted to 7.3 with HCl). The pipette solution contained (in mM) CsF 100, CsCl 40, NaCl 5, CaCl2 0.5, EGTA 5, and HEPES 10 (pH was adjusted to 7.2 with CsOH). Experiments were performed at room temperature (22–24°C). […] Lamotrigine, topiramate, levetiracetam, felbamate, carbamazepine, tiagabin, vigabatrin, zonisamide, and gabapentin were purchased from Tocris Bioscience (Bristol, United Kingdom). Perampanel was from MedChemExpress (Stockholm, Sweden). Kinetics of transient processes of more than 20-ms duration was approximated by exponential functions. Experiments were performed at −80 mV holding voltage. All experimental data are presented as mean ± SD estimated from at least four experiments. Significance of the effects was tested with paired t test. Differences were considered significant at p < 0.05. 3D structures of compounds were calculated by the ZMM software (zmmsoft.ca).

[3] = system: hGluA1-4 receptors; design: method as in Fukushima et al. (2020); settings: ref Fukushima et al. (2020); cited from earlier work
[4] = target: T1, CI-AMPARs; design: method as in Barygin, 2016; settings: ref Barygin, 2016, cited from earlier work
[5] = double-pulse protocol, 30-s pause

SMILES: O=C1NC(=O)C(Cc2ccccc2)N1 (stereo not drawn) [5-benzylhydantoin]
- inhibition at 300 µM ([1]; 300 µM compound, read-out: percentage of inhibition at 300-µM concentration): ≤ 20%

SMILES: NC(=O)N1c2ccccc2C=Cc2ccccc21 [Carbamazepine]
- CP-AMPARs % inhibition at 100 µM ([2]; −80 mV): 15 ± 4%
- CP-AMPARs % inhibition at 100 µM ([2]; −80 mV, listed as carbamazepine): ≤ 20%
- CI-AMPARs % inhibition at 100 µM ([1]; −80 mV): 11 ± 3%
- inhibition at 100 µM ([1]; −80 mV): ≤ 20%
- activity against hGluA1-4 receptors [3]: did not find significant activity

SMILES: NS(=O)(=O)c1cc2c(cc1Cl)NC(C1CC3C=CC1C3)NS2(=O)=O (stereo not drawn) [Cyclothiazide]
- fold potentiation ([1]; Kainate, 50 μM +/- cyclothiazide, 100 μM, representative recording, Figure 5A): 7.4 fold
- fold induction at 100 µM ([1]; read-out: increase of the stationary current induced by 50 µM kainate, 100 µM cyclothiazide): 8 ± 2

SMILES: NC(=O)OCC(COC(N)=O)c1ccccc1 [Felbamate]
- CP-AMPARs % inhibition at 100 µM ([2]; −80 mV): 10 ± 4%
- CP-AMPARs % inhibition at 100 µM ([2]; −80 mV, listed as felbamate): ≤ 20%
- CI-AMPARs % inhibition at 100 µM ([1]; −80 mV): 16 ± 4%
- inhibition at 100 µM ([1]; −80 mV): ≤ 20%

SMILES: CC1=NN=C(c2ccc(N)cc2)c2cc3c(cc2C1)OCO3 [GYKI-52466]
- displacement of slow negative allosteric antagonist perampanel [4]: able to displace
- effect on the slow phase of recovery from 50 µM phenytoin ([1]; 200 µM GYKI-52466): remains unchanged

SMILES: NCC1(CC(=O)O)CCCCC1 [Gabapentin]
- CP-AMPARs % inhibition at 100 µM ([2]; −80 mV): 12 ± 5%
- CP-AMPARs % inhibition at 100 µM ([2]; −80 mV, listed as gabapentin): ≤ 20%
- CI-AMPARs % inhibition at 100 µM ([1]; −80 mV): 20 ± 6%
- inhibition at 100 µM ([1]; −80 mV): ≤ 20%
- activity against hGluA1-4 receptors [3]: did not find significant activity

SMILES: NCCCCCNC1(c2ccccc2)CCCCC1 [IEM-1925]
- slow component of the response to testing kainate application in the trapping protocol ([2]; 6 µM IEM-1925, double-pulse protocol, n = 4): 1,800 ± 400 ms
- Activity drop at high (500 µM) kainate concentration ([2]; 50 vs 500 µM kainate, striatal CP-AMPARs): No
- % block ([2]; Ka 50 μM): 49%
- % block ([2]; Ka 500 μM): 57%
- % inhibition ([2]; 50 µM kainate): 48 ± 3%
- % inhibition ([2]; 500 µM kainate): 55 ± 5%
- Difference in the % of inhibition in coapplication and preapplication protocols ([2]; coapplication with kainate vs preapplication without kainate, striatal CP-AMPARs): inhibited only open channels and Yes
- Trap in kainate 100 µM ([2]; double-pulse protocol, 30-s pause, striatal giant interneuron): Yes
- Trap in kainate 500 µM ([2]; double-pulse protocol, striatal giant interneuron): Yes
- IC50 ([2]; Hill equation, −80 mV): 1.3 ± 0.4 µM
- More active against CI-AMPARs [1]: dramatically more active against CP-AMPARs and No
- IC50 ([1]; Hill equation, −80 mV): 180 ± 30 µM

SMILES: CCCC(C)C1(CC)C(=O)NC(=O)NC1=O (stereo not drawn) [Pentobarbital]
- IC50 ([2]; Hill equation, −80 mV): 80 ± 13 µM
- % block [1]: 56% and 42%
- Activity drop at high (500 µM) kainate concentration [1]: more active in the case of lower kainate concentration and Yes
- More active against CI-AMPARs [1]: Yes
- effect on maximal response to kainate ([1]; 14 µM pentobarbital): decreased the maximal response to kainate
- Activity drop in the presence of cyclothiazide ([1]; 100 µM cyclothiazide): Yes
- Activity drop in the presence of cyclothiazide ([1]; 100 µM cyclothiazide, listed as pentobarbital): significantly attenuated in the presence of cyclothiazide
- decrease in the % of inhibition with the increase in agonist concentration [1]: 10–15%
- % block ([1]; Pentobarbital, 50 μM, Kainate, 50 μM + cyclothiazide, 100 μM, representative recording, Figure 5E): 27%
- % block ([1]; Pentobarbital, 50 μM, Kainate, representative recording, Figure 5D): 75%
- Difference in the % of inhibition in coapplication and preapplication protocols [1]: more active in the coapplication protocol and Yes
- Trap in kainate 100 µM [1, 5]: Yes
- IC50 ([1]; Hill equation, −80 mV): 14 ± 3 µM
- pH-dependence ([1]; pH 7.4 vs 9.0): Yes
- % block ([1]; pentobarbital 30 μM, pH 7.4, Kainate, 100 μM, representative recording, Figure 10B): 65%
- % block ([1]; pentobarbital 30 μM, pH 9.0, Kainate, 100 μM, representative recording, Figure 10B): 27%

SMILES: N#Cc1ccccc1-c1cc(-c2ccccn2)cn(-c2ccccc2)c1=O [Perampanel]
- IC50 [2]: 0.06 ± 0.006 µM
- reduction in activity by cyclothiazide ([4]; isolated CA1 pyramidal neurons): ca. 20 fold
- Activity drop in the presence of cyclothiazide [4]: Yes
- Activity drop in the presence of cyclothiazide ([4]; listed as perampanel): less active in the presence of cyclothiazide
- Activity drop at high (500 µM) kainate concentration [1]: more active in the case of lower kainate concentration and Yes
- More active against CI-AMPARs [1]: equipotently inhibited both receptor subtypes and No
- time constant τ of the response to testing kainate application in the trapping protocol ([1]; 500 nM perampanel, double-pulse protocol, n = 4): 41 ± 12 ms
- decrease in the % of inhibition with the increase in agonist concentration [1]: 30–40%
- Difference in the % of inhibition in coapplication and preapplication protocols [1]: No
- Difference in the % of inhibition in coapplication and preapplication protocols ([1]; listed as perampanel): equally effective in preapplication and coapplication protocols
- Trap in kainate 100 µM [1, 5]: No
- Trap in kainate 500 µM [1, 5]: No
- IC50 [1]: 0.063 ± 0.008 µM
